Nine molecules from patent US20260250290A1 (BRISTOL-MYERS SQUIBB COMPANY, priority 2023, published 2026) can be followed below.

The target of this test is T1, full length SGK1 (Homo sapiens, UniProt O00141).
T1 construct: 125 μM full length SGK1 (Life Technologies Part #PR7358A); purchased Life Technologies PR7358A
T1 sequence (O00141 1-431): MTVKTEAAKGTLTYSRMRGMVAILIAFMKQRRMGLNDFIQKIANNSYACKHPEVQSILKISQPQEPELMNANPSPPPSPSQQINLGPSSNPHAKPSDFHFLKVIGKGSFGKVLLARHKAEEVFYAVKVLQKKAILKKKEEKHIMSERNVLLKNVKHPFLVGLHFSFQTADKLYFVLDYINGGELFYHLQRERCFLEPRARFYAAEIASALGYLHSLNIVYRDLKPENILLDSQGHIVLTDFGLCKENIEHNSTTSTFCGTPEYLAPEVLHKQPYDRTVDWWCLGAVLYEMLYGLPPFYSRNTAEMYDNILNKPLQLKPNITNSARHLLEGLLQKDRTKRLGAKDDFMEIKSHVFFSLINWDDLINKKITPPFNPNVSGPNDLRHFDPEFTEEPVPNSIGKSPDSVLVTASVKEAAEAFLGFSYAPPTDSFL
Put plainly: SGK1 inhibition Assay A (Caliper LabChip electrophoretic separation of fluorescent peptide substrate and phosphorylated product). It counts as biochemical. As to conditions: Assay A; 20 μM ATP, 40 min incubation; read-out: SGK1 IC50.

Broadly, the pIC50 is the negative decadic logarithm of the IC50, by convention in mol/L.

pIC50: −log10 of the molar value. Counter-ions that a name gives are not always drawn.

For the molecule `CN(C)CCOc1cc(Cl)sc1C(=O)N[C@@H]1CCCN(c2cc(C3=CCNC3)n3ncnc(N)c23)C1` [Example 171, (R)—N-(1-(4-amino-7-(2,5-dihydro-1H-pyrrol-3-yl)pyrrolo[2,1-f][1,2,4]triazin-5-yl)piperidin-3-yl)-5-chloro-3-(2-(dimethylamino)ethoxy)thiophene-2-carboxamide, 3 TFA], the pIC50 is 7.80.
The result for `CN(C)CCOc1cc(Cl)sc1C(=O)N[C@@H]1CCCN(c2cc(C3=CCNCC3)n3ncnc(N)c23)C1` [Example 172, (R)—N-(1-(4-amino-7-(1,2,3,6-tetrahydropyridin-4-yl)pyrrolo[2,1-f][1,2,4]triazin-5-yl)piperidin-3-yl)-5-chloro-3-(2-(dimethylamino)ethoxy)thiophene-2-carboxamide, 3 TFA] reads 6.46.
The result for `COC(=O)N1CC=C(c2cc(N3CCC[C@@H](NC(=O)c4sc(Cl)cc4OCCN(C)C)C3)c3c(N)ncnn23)C1` [Example 173, methyl (R)-3-(4-amino-5-(3-(5-chloro-3-(2-(dimethylamino)ethoxy)thiophene-2-carboxamido)piperidin-1-yl)pyrrolo[2,1-f][1,2,4]triazin-7-yl)-2,5-dihydro-1H-pyrrole-1-carboxylate, 2 TFA] reads 8.40; that for `COC(=O)N1CC=C(c2cc(N3CCC[C@@H](NC(=O)c4sc(Cl)cc4OCCN(C)C)C3)c3c(N)ncnn23)CC1` [Example 174, methyl (R)-4-(4-amino-5-(3-(5-chloro-3-(2-(dimethylamino)ethoxy)thiophene-2-carboxamido)piperidin-1-yl)pyrrolo[2,1-f][1,2,4]triazin-7-yl)-3,6-dihydropyridine-1(2H)-carboxylate], 7.43.
The result for `CC(=O)N1CC=C(c2cc(N3CCC[C@@H](NC(=O)c4sc(Cl)cc4OCCN(C)C)C3)c3c(N)ncnn23)C1` [Example 175, (R)—N-(1-(7-(1-acetyl-2,5-dihydro-1H-pyrrol-3-yl)-4-aminopyrrolo[2,1-f][1,2,4]triazin-5-yl)piperidin-3-yl)-5-chloro-3-(2-(dimethylamino)ethoxy)thiophene-2-carboxamide, 2 TFA] reads 8.40; that for `CN(C)CCOc1cc(Cl)sc1C(=O)N[C@@H]1CCCN(c2cc(C3=CCN(C(=O)CC(F)(F)F)C3)n3ncnc(N)c23)C1` [Example 176, (R)-N-(1-(4-amino-7-(1-(3,3,3-trifluoropropanoyl)-2,5-dihydro-1H-pyrrol-3-yl)pyrrolo[2,1-f][1,2,4]triazin-5-yl)piperidin-3-yl)-5-chloro-3-(2-(dimethylamino)ethoxy) thiophene-2-carboxamide, 2 TFA], 8.40.
As to `CN(C)CCOc1cc(Cl)sc1C(=O)N[C@@H]1CCCN(c2cc(C3=CCN(C(=O)C4CC4)C3)n3ncnc(N)c23)C1` [Example 177, (R)-N-(1-(4-amino-7-(1-(cyclopropanecarbonyl)-2,5-dihydro-1H-pyrrol-3-yl)pyrrolo[2,1-f][1,2,4]triazin-5-yl)piperidin-3-yl)-5-chloro-3-(2-(dimethylamino)ethoxy) thiophene-2-carboxamide, 2 TFA], the pIC50 was 8.30.
Consider `CN(C)CCOc1cc(Cl)sc1C(=O)N[C@@H]1CCCN(c2cc(C3=CCN(C(=O)C4CCC4)C3)n3ncnc(N)c23)C1` [Example 178, (R)-N-(1-(4-amino-7-(1-(cyclobutanecarbonyl)-2,5-dihydro-1H-pyrrol-3-yl)pyrrolo[2,1-f][1,2,4]triazin-5-yl)piperidin-3-yl)-5-chloro-3-(2-(dimethylamino)ethoxy) thiophene-2-carboxamide, 2 TFA], for which the pIC50 is 8.22.
Under `CN(C)CCOc1cc(Cl)sc1C(=O)N[C@@H]1CCCN(c2cc(C3=CCN(C(=O)C4CC(F)(F)C4)C3)n3ncnc(N)c23)C1` [Example 179, (R)-N-(1-(4-amino-7-(1-(3,3-difluorocyclobutane-1-carbonyl)-2,5-dihydro-1H-pyrrol-3-yl)pyrrolo[2,1-f][1,2,4]triazin-5-yl)piperidin-3-yl)-5-chloro-3-(2-(dimethylamino)ethoxy) thiophene-2-carboxamide, 2 TFA] stands 8.10.
